From patent US8470765B2, “Polypeptides and antibacterial or antiseptic use of same” (AnGes MG, Inc., priority 2009, dated 2013)
Values after ≈ are worked out from the molar mass of the structure shown. Like-named read-outs stand apart in the source and are kept apart here. No end group written: not given here.

Columns and labels:
[1] = tested on: Alternaria alternata JCM5800; conditions: JCM5800
[2] = tested on: Enterobacter cloacae JCM 1232; assay type: cell-based
Experimental: Bacteria (Escherichia coli ATCC 25922, Pseudomonas aeruginosa ATCC 27853, Staphylococcus aureus ATCC29213, Klebsiella pneumoniae JCM 1662, Enterobacter cloacae JCM 1232, Enterobacter aerogenes JCM 1235 and Staphylococcus epidermidis JCM 2414) were inoculated to Mueller-Hinton broth: MHB or LB medium, and cultured at a temperature and period suited for each strain. From the thus obtained colonies, each strain was inoculated to a fresh liquid medium and cultured for 16 to 20 hours. Then an aliquot having a volume (10 to 50 appropriate to each strain was inoculated to a fresh liquid medium and cultured for 4 to 6 hours, followed by the measurement of the absorbance at 600 nm. After comparing the turbidity with McFarland #0.5, the resultant was diluted with a medium. Each strain was added to about 10^5 CFU/mL (final concentration). Each of the peptide solutions to be tested was diluted with MHB to obtain a solution of 128 μg/mL. […] As controls, tobramycin (TOB: aminoglucoside antibiotic), oxacillin (OX:β-lactam antibiotic), meropenem (MEPM: carbapenem antibiotic) and ciprofloxacin (new quinolone antibiotic) were used. […] To a 96-well microtiter plate, 0.1 mL of the inoculation solution and 0.1 mL of the peptide- or positive control-containing medium having the respective concentration were added, and cultured at 37° C. for 16 to 24 hours (or a time period suited for the growth of the respective strain). The well not containing the sample was used as a negative control. After the culturing, the growth was visually observed, and the minimum concentration at which the growth was inhibited was defined as the minimum growth inhibition concentration (MIC). The medium used in this test for bacteria was Mueller-Hinton broth. Independent experiments were carried out twice or more for each strain.

[3] = tested on: Staphylococcus epidermidis JCM 2414; assay: microbe, parasite or virus in culture; assay type: cell-based; conditions: for MIC: Staphylococcus epidermidis, JCM2414, read-out: MIC Staphylococcus epidermidis
How it was run: (§1)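 Inoculum: 4–6 h subculture, turbidity matched to McFarland #0.5, diluted to ~10^5 CFU/mL final. Peptide dilutions in MHB from 128 μg/mL; 37° C, 16–24 h. MIC = lowest concentration inhibiting visible growth; ≥2 independent runs per strain.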

[4] = tested on: Pseudomonas aeruginosa ATCC 27853; assay: microbe, parasite or virus in culture; assay type: cell-based; conditions: for MIC: Pseudomonas aeruginosa, ATCC27853, read-out: MIC Pseudomonas aeruginosa
How it was run: as §1

[5] = tested on: Klebsiella pneumoniae JCM 1662; assay: microbe, parasite or virus in culture; assay type: cell-based; conditions: for MIC: Klebsiella pneumoniae, JCM1662
How it was run: as §1

[6] = tested on: Staphylococcus aureus ATCC29213; assay: microbe, parasite or virus in culture; assay type: cell-based; conditions: for MIC Staphylococcus aureus: ATCC29213; for MIC: Staphylococcus aureus, ATCC29213, read-out: MIC Staphylococcus aureus, Table 4, two tests, first/second value where not identical
How it was run: as §1

[7] = tested on: Enterobacter aerogenes JCM 1235; assay: microbe, parasite or virus in culture; assay type: cell-based; conditions: for MIC: Klebsiella aerogenes, JCM1235
How it was run: as §1

[8] = tested on: Escherichia coli ATCC 25922; assay: microbe, parasite or virus in culture; assay type: cell-based; conditions: for MIC: Escherichia coli, ATCC25922, read-out: MIC Escherichia coli
How it was run: as §1

[9] = tested on: Cryptococcus neoformans IFM 46660
[10] = tested on: Bacteroides fragilis JCM 11019; conditions: JCM 11019
[11] = tested on: Pseudomonas aeruginosa 12 (clinical strain); assay: microbe, parasite or virus in culture; conditions: for MIC: Pseudomonas aeruginosa, read-out: MIC Pseudomonas aeruginosa 12
Experimental: (§2) Bacteria (Escherichia coli ATCC 25922, Pseudomonas aeruginosa ATCC 27853, Staphylococcus aureus ATCC29213, Klebsiella pneumoniae JCM 1662, Enterobacter cloacae JCM 1232, Enterobacter aerogenes JCM 1235 and Staphylococcus epidermidis JCM 2414) were inoculated to Mueller-Hinton broth: MHB or LB medium, and cultured at a temperature and period suited for each strain. From the thus obtained colonies, each strain was inoculated to a fresh liquid medium and cultured for 16 to 20 hours. Then an aliquot having a volume (10 to 50 appropriate to each strain was inoculated to a fresh liquid medium and cultured for 4 to 6 hours, followed by the measurement of the absorbance at 600 nm. After comparing the turbidity with McFarland #0.5, the resultant was diluted with a medium. Each strain was added to about 10^5 CFU/mL (final concentration).
(§3) Further, the antibacterial activities against the clinical strains collected and isolated from infected patients were also examined. The tests were carried out for two methicillin-resistant Staphylococcus (MRSA) (MRSA (i) and (ii)), two methicillin-sensitive Staphylococcus (MSSA) (MSSA (i) and (ii)), five Pseudomonas aeruginosa, Pseudomonas aeruginosa 1, Pseudomonas aeruginosa 6, Pseudomonas aeruginosa 8. Pseudomonas aeruginosa 9 and Pseudomonas aeruginosa 12, totally 9 clinical strains. The MRSA and MSSA clinical strains were tested by the same method as Staphylococcus aureus ATCC29213, and Pseudomonas clinical strains were tested by the same method as Pseudomonas aeruginosa ATCC 27853.
(§4) Each of the peptide solutions to be tested was diluted with MHB to obtain a solution of 128 μg/mL. This solution was serially diluted with the medium to prepare peptide-containing media having concentrations of 128, 64, 32, 16, 8.0, 4.0 and 2.0 μg/mL respectively. […] By dilution with sterilized purified water to 1.0 mg/mL, positive control-containing media having concentrations of 16, 8, 4, 2, 1.0, 0.25, 0.12 and 0.06 μg/mL, respectively for TOB; 0.5, 0.12 and 0.06 μg/mL, respectively, for OX; and 16, 8, 4, 2, 1.0, 0.25, 0.12, 0.06, 0.06, 0.03 and 0.008 μg/mL, respectively, for MEPM, were prepared.
(§5) To a 96-well microtiter plate, 0.1 mL of the inoculation solution and 0.1 mL of the peptide- or positive control-containing medium having the respective concentration were added, and cultured at 37° C. for 16 to 24 hours (or a time period suited for the growth of the respective strain). The well not containing the sample was used as a negative control. After the culturing, the growth was visually observed, and the minimum concentration at which the growth was inhibited was defined as the minimum growth inhibition concentration (MIC).
(§6) The medium used in this test for bacteria was Mueller-Hinton broth. Independent experiments were carried out twice or more for each strain.

[12] = tested on: Pseudomonas aeruginosa 9 (clinical strain); assay: microbe, parasite or virus in culture; conditions: for MIC: Pseudomonas aeruginosa, read-out: MIC Pseudomonas aeruginosa 9
Experimental: as §2, §3, §4, §5, §6

[13] = tested on: Pseudomonas aeruginosa 1 (clinical strain); assay: microbe, parasite or virus in culture; conditions: for MIC: Pseudomonas aeruginosa, read-out: MIC Pseudomonas aeruginosa 1
Experimental: as §2, §3, §4, §5, §6

[14] = tested on: Pseudomonas aeruginosa 6 (clinical strain); assay: microbe, parasite or virus in culture; conditions: for MIC: Pseudomonas aeruginosa, read-out: MIC Pseudomonas aeruginosa 6
Experimental: as §2, §3, §4, §5, §6

[15] = Table 4, two tests, first/second value where not identical
[16] = Table 4, clinical strain, first/second value where not identical

| Compound | MIC Candida krusei (Candida krusei NBRC1395; NBRC1395) [µg/mL] | MIC Alternaria alternata [1] [µg/mL] | MIC Enterobacter cloacae [2, 15] | MIC Staphylococcus epidermidis [3, 15] | MIC Pseudomonas aeruginosa ([4]; ATCC 27853) [µg/mL] | MIC Klebsiella pneumoniae ([5]; JCM 1662) [µg/mL] | MIC Staphylococcus aureus [6] [µg/mL] | MIC Bacteroides fragilis [10] [µg/mL] | MIC Pseudomonas aeruginosa 12 [11, 16] | MIC Pseudomonas aeruginosa 9 [12, 16] | MIC Pseudomonas aeruginosa 1 [13, 16] | MIC Enterobacter aerogenes [7, 15] | MIC Escherichia coli ([8]; ATCC 25922) [µg/mL] | MIC Cryptococcus neoformans ([9]; IFM 46660) [µg/mL] | MIC Pseudomonas aeruginosa 6 [14, 16] | other results |
| --- | --- | --- | --- | --- | --- | --- | --- | --- | --- | --- | --- | --- | --- | --- | --- | --- |
| RLKRMRKRLKRKLRLWHRKRYK-NH2 [SRP-8] | 32 | 32 | 128< mg/mL | 8/16 | 16 | 32 | 16 | > 128 | 16/32 | 16/64 | 16/32 | – | – | – | – | MIC Enterobacter aerogenes ([7]; JCM 1235): 64 µg/mL; MIC Escherichia coli [8, 15]: 16/32; MIC Cryptococcus neoformans [9, 15]: 1/2; MIC Pseudomonas aeruginosa 6 ([14]; 6 (clinical strain)): 16 µg/mL |
| GRLKRMGKRLKRKIQKWARW-NH2 [SRP-14] | 32 | 32 | 32/128 | 8/16 | 16 | – | 16 | 128 | 8/16 | 16/32 | – | 16/32 | 16 | 1 | 8/16 | MIC Klebsiella pneumoniae [5, 15]: 16/128; MIC Pseudomonas aeruginosa 1 ([13]; 1 (clinical strain)): 16 µg/mL |
| KLIFLRELRRLRKRLKRKLR-NH2 [SRP-16] | 32 | 64 | – | 8/16 | 16 | 64 | 16 | 32 | 8/16 | – | 16/32 | 16/32 | – | 2 | – | MIC Enterobacter cloacae ([2]; JCM 1232): 64 µg/mL; MIC Escherichia coli [8, 15]: 16/32; MIC Pseudomonas aeruginosa 9 ([12]; 9 (clinical strain)): 64 µg/mL; MIC Pseudomonas aeruginosa 6 ([14]; 6 (clinical strain)): 16 µg/mL |
| IFLHRLKRMRKRLKRKLRLW-OH [SRP-7] | – | 32 | 16/128 | – | – | – | 32 | 128 | – | 64/128 | 32/64 | 16/64 | 32 | 2 | 16/64 | MIC Candida krusei (Candida krusei NBRC1395; [15]): 64/32; MIC Staphylococcus epidermidis ([3]; JCM 2414): 8 µg/mL; MIC Pseudomonas aeruginosa [4, 15]: 8/16; MIC Klebsiella pneumoniae [5, 15]: 16/64; MIC Pseudomonas aeruginosa 12 ([11]; 12 (clinical strain)): 16 µg/mL |
| NC[C@H]1O[C@H](O[C@H]2[C@H](O)[C@@H](O[C@H]3O[C@H](CO)[C@@H](O)[C@H](N)[C@H]3O)[C@H](N)C[C@@H]2N)[C@H](N)C[C@@H]1O [tobramycin, reference compound] | – | – | – | – | – | – | – | – | – | – | – | – | – | – | – | MIC [3, 15]: 0.12 to 1 µg/mL (≈ 0.257 to 2.14 µM); MIC [4, 15]: 0.25 to 1 µg/mL (≈ 0.535 to 2.14 µM); MIC [5, 15]: < 4000 µg/mL; MIC [6]: 0.12 to 1 µg/mL (≈ 0.257 to 2.14 µM); MIC [7, 15]: < 4000 µg/mL; MIC [8, 15]: 0.25 to 1 µg/mL (≈ 0.535 to 2.14 µM); MIC [11]: < 4000 µg/mL; MIC [12]: < 4000 µg/mL; MIC [13]: > 16000 µg/mL; MIC [14]: < 4000 µg/mL |
| C[C@@H](O)[C@H]1C(=O)N2C(C(=O)O)=C(S[C@@H]3CN[C@H](C(=O)N(C)C)C3)[C@H](C)[C@H]12 [meropenem, reference compound] | – | – | – | – | – | – | – | – | – | – | – | – | – | – | – | MIC [3, 15]: 0.03 to 0.12 µg/mL (≈ 0.0782 to 0.313 µM); MIC [4, 15]: 0.25 to 1 µg/mL (≈ 0.652 to 2.61 µM); MIC [5, 15]: < 4000 µg/mL; MIC [6]: 0.03 to 0.12 µg/mL (≈ 0.0782 to 0.313 µM); MIC [7, 15]: < 4000 µg/mL; MIC [8, 15]: 0.008 to 0.06 µg/mL (≈ 0.0209 to 0.156 µM); MIC [11]: < 4000 µg/mL; MIC [12]: < 4000 µg/mL; MIC [13]: < 4000 µg/mL; MIC [14]: 8 to 16 µg/mL (≈ 20.9 to 41.7 µM) |
| LIFLHRLKRMRKRLKRKLRL-NH2 [SRP-12] | – | – | 128< mg/mL | 4/8 | – | 128 | 16 | – | – | 16/64 | 16/32 | 32/64 | 32 | 1 | 32/64 | MIC Pseudomonas aeruginosa [4, 15]: 16/32; MIC Pseudomonas aeruginosa 12 ([11]; 12 (clinical strain)): 16 µg/mL |
